The conditions of data set [1]: U.S. Pat. Nos. 3,932,512 and 4,046,811; cited from earlier work.
A short description of a further data set: in vitro. To be noted: human, g-2 cells; for MNTC: Cytotoxicity CTD0, maximal non-toxic concentration; for CC50: Cytotoxicity CTD50.
The next data set concerns Influenza A2 /MTL/68. Description: In vitro anti-myxovirus assay, inhibition of hemadsorption, Influenza A2/MTL/68 in G-2 cells. Type of data set: cell-based, Influenza A2 /Montreal/68. To be noted: for inhibition at 5 µg/mL: 5 ug/ml; for inhibition at 10 µg/mL: 10 ug/ml; for inhibition at 25 µg/mL: 25 ug/ml; for inhibition at 33 µg/mL: 33 ug/ml; for inhibition at 50 µg/mL: 50 ug/ml.

Data set [2] has as its system mice. Description: Acute toxicity in mice. To be noted: after 24 hours.
The nature of the next data set: Acute toxicity in mice. The conditions noted are these: mouse, in vivo.
The test system of data set [3] is mice. Description: Subacute toxicity in mice. To be noted: for Subacute LD0 (non-lethal dose): once a day, seventeenth day of treatment.
The nature of data set [4]: Subacute toxicity in mice. The conditions noted are these: mouse, in vivo.
For data set [5], the system named is Influenza A/Swine/1976/31. Kind of data set: microbe, parasite or virus in culture. In kind it is cell-based. The conditions noted are these: in Sus scrofa.
For data set [6], the system named is influenza virus A2 /Aichi/2/68. Type of data set: in vivo, mice (Charles River, random bred white, female). To be noted: for Mean Survival Time / Survival % / Survival N (surviving animals / total infected) / Mean Survival Time Increase: 16 days; for Mean Survival Time Increase: vs virus only; for antiviral effect against influenza virus infection: administered intraperitoneally.

The nature of data set [7]: in vivo. The conditions noted are these: mouse.
Data set [8] in a line: in vivo. To be noted: mouse. The source holds these as a separate data set.
The test system of the next data set is Influenza B/MASS/66. Kind of data set: In vitro anti-myxovirus assay, inhibition of hemadsorption, Influenza B/MASS/66 in G-2 cells. In kind it is cell-based. The conditions noted are these: Influenza B virus, 56 TCID50. As to the method:
In preparing the compounds for testing, they were handled aseptically throughout. The compounds were dissolved in a minimum amount of a suitable solvent and the final dilutions were made up to the required volume in a complete culture medium used in assay and in concentration not exceeding the predetermined maximum non-toxic levels.
The antiviral assays were done in tissue cultures infected with an appropriate dose of an influenza virus.
The cell culture used in all in vitro anti-myxovirus assays was an established cell line of the human conjunctiva (G-2 cells). The cytotoxic studies of each of the compounds were performed prior to testing for antiviral activity to determine level of response of the cells to the potentially toxic action of the compounds.
For the antiviral assays the cells were grown in triplicates per dilution of compound in test tubes in a suitable medium. Immediately before use the initial medium was replaced with the one containing the test compound in an appropriate concentration. After virus was added at approximately 10 and 100 TCID50 dose levels the infected culture was incubated at 32° C. for a number of days. The medium was then drained, red blood cells added and after washing, the extent of hemadsorption evaluated. The percentage of inhibition of adsorption (a measure of antiviral activity) was then calculated. In all anti-myxovirus testing in vitro, as well as in vivo, amantadine (a known antiviral agent) was used as a reference standard.

Setting [9] is: Exp. 1, virus dose 4.1 LD50, 25 mg/kg/day IP.
The mark [10] stands for this setting: Exp. 2, virus dose 2.0 LD50, 300 mg/kg/day IP.
The mark [11] stands for this setting: Exp. 3, virus dose 2.6 LD50, 200 mg/kg/day IP.
Setting [12] is: Exp. 4, virus dose 3.0 LD50, 200 mg/kg/day IP.

The values below come from patent US4362746A (priority 1981, dated 1982).

Structures can show the parent of a compound that is named as a salt. Where two headings read alike, the source gives them in different places.

The CC50 is the concentration giving 50% cytotoxicity. A high value points to lower toxicity to the cells. Broadly, the inhibition is the relative decrease from the control value, in per cent. Lower therefore signals a weak effect. One may read the LD50 as the dose at which mortality reaches 50%. In general, NOAEL refers to the highest tested level that showed no adverse finding.

Turning to `N[C@@H]1C[C@H]2C[C@@H]1c1ccccc12` (relative stereo) [1,2,3,4-tetrahydro-1,4-methanonaphthalen-endo-2-amine], in data set [1], the antiviral activity entry is reported as “exhibited antiviral activity”.

In the data set “in vitro”, `CN(C)C[C@@H]1C[C@H]2C[C@@H]1c1ccccc12` (relative stereo) [Compound A, endo-2-dimethylaminomethyl-1,2,3,4-tetrahydro-1,4-methanonaphthalene hydrochloride] came in with an MNTC of 75 µg/mL. For the same molecule, half-maximal cytotoxicity in the data set “in vitro” (CC50) was put at 100 µg/mL. Further, the inhibition at 5 µg/mL with Influenza A2 /MTL/68 (32 TCID50) came to 0%; in the data set on Influenza A2 /MTL/68 (316 TCID50), 0%; in [5] (56 TCID50, 5 ug/ml) it was 0%; in data set [5] (562 TCID50, 5 ug/ml) it was 0%. Besides, the inhibition at 10 µg/mL in the data set with Influenza A2 /MTL/68 (32 TCID50) was found to be 23%; with Influenza A2 /MTL/68 (316 TCID50) it was 0%; in data set [5] (56 TCID50, 10 ug/ml) it was 37%; in data set [5] (562 TCID50, 10 ug/ml), 0%. Moreover, the inhibition at 25 µg/mL in the data set on Influenza A2 /MTL/68 (32 TCID50) was found to be 76%; with Influenza A2 /MTL/68 (316 TCID50), 27%; in data set [5] (56 TCID50, 25 ug/ml), 85%; in data set [5] (562 TCID50, 25 ug/ml), 0%. For the same molecule, the inhibition at 33 µg/mL with Influenza A2 /MTL/68 (32 TCID50) was determined as 78%; with Influenza A2 /MTL/68 (316 TCID50) it was 52%; in data set [5] (56 TCID50, 33 ug/ml) it was 82%; in [5] (562 TCID50, 33 ug/ml), 37%. Moreover, the inhibition at 50 µg/mL came to 97% with Influenza A2 /MTL/68 (32 TCID50); 53% with Influenza A2 /MTL/68 (316 TCID50); 97% in data set [5] (56 TCID50, 50 ug/ml); 72% in data set [5] (562 TCID50, 50 ug/ml). For the same molecule, the entries for the “Acute LD0 (non-lethal dose)” value in the data set with mice [2] (IP) and in the data set on mice [2] (PO) were 75 mg/kg/day and over 750 mg/kg/day, respectively. Further, the LD50 at 24 h is 160 mg/kg in “Acute toxicity in mice” (ip) and over 750 mg/kg in “Acute toxicity in mice” (po). Besides, the NOAEL at 24 h stood at 25 mg/kg/day in “Acute toxicity in mice” (ip) and 200 mg/kg/day in “Acute toxicity in mice” (po). Further, the “Subacute LD0 (non-lethal dose)” value in the data set with mice [3] (IP) is listed as 75 mg/kg/day; with mice [3] (PO) it was over 750 mg/kg/day. Besides, the results for the 50% lethal dose (LD50) at 408 h in [4] (ip) and in data set [4] (po) were 125 mg/kg and over 750 mg/kg, respectively. The results for the no observed adverse effect level (NOAEL) at 408 h in data set [4] (ip) and in data set [4] (po) were 25 mg/kg/day and 300 mg/kg/day, respectively. Further, the “Cytotoxicity CTD0” value in the data set with G-2 cells (maximal non-toxic concentration, G-2 cells, hydrochloride) amounted to 50 µg/mL. Besides, the inhibition at 75 µg/mL in data set [5] (56 TCID50, 75 ug/ml) worked out at 100%; in data set [5] (562 TCID50, 75 ug/ml), 73%. Also, the “Mean Survival Time” value in [6] (setting [9]) stood at 12.7 days. Further, the Survival % in data set [6] (setting [9]) amounted to 30%. Moreover, the “Survival N (surviving animals / total infected)” value in [6] (setting [9]) is reported as 6/20. Further, the “Mean Survival Time Increase” value in data set [6] (setting [9]) is reported as “+0.5 Days”. For the same molecule, the “antiviral effect against influenza virus infection” value in data set [6] was “significant antiviral effect”.

With `CN(C)C[C@H]1[C@@H](N)[C@@H]2C[C@H]1c1ccccc12` (relative stereo) [Compound B, endo-3-dimethylaminomethyl-endo-2-amino-1,2,3,4-tetrahydro-1,4-methanonaphthalene dihydrochloride], the NOAEL at 24 h in the data set “in vivo [7]” (ip) and in the data set “in vivo [7]” (po) was over 750 mg/kg/day in each case. In the data set “in vitro”, this molecule returned an MNTC of 50 µg/mL. It took 100 µg/mL to reach half-maximal cytotoxicity in “in vitro” (CC50). Also, the NOAEL at 408 h in “in vivo [8]” (ip) stood at 400 mg/kg/day; in the data set “in vivo [8]” (po), 750 mg/kg/day. In addition, the inhibition at 5 µg/mL in the data set on Influenza A2 /MTL/68 (32 TCID50) was determined as 0%; in the data set on Influenza A2 /MTL/68 (316 TCID50) it was 0%; in data set [5] (316 TCID50, 5 ug/ml), 0%. In addition, the inhibition at 10 µg/mL in the data set with Influenza A2 /MTL/68 (32 TCID50) was determined as 30%; in the data set on Influenza A2 /MTL/68 (316 TCID50), 0%; in data set [5] (316 TCID50, 10 ug/ml), 70%; with Influenza B/MASS/66 (10 ug/ml), 0%. Further, the inhibition at 25 µg/mL in the data set with Influenza A2 /MTL/68 (32 TCID50) was found to be 78%; in the data set with Influenza A2 /MTL/68 (316 TCID50), 70%; in data set [5] (316 TCID50, 25 ug/ml), 92%; with Influenza B/MASS/66 (25 ug/ml) it was 17%. In addition, the inhibition at 33 µg/mL with Influenza A2 /MTL/68 (32 TCID50) is 93%; in the data set with Influenza A2 /MTL/68 (316 TCID50) it was 76%; in data set [5] (316 TCID50, 33 ug/ml), 100%; in the data set with Influenza B/MASS/66 (33 ug/ml), 43%. Besides, the inhibition at 50 µg/mL was determined as 93% in the data set on Influenza A2 /MTL/68 (32 TCID50), 83% with Influenza A2 /MTL/68 (316 TCID50) and 73% in the data set with Influenza B/MASS/66 (50 ug/ml). The “Acute LD0 (non-lethal dose)” value is on record as 450 mg/kg/day in the data set on mice [2] (IP) and over 750 mg/kg/day with mice [2] (PO). Also, the LD50 at 24 h in “Acute toxicity in mice” (ip) is 550 mg/kg; in “Acute toxicity in mice” (po), over 750 mg/kg. Also, the “Subacute LD0 (non-lethal dose)” value with mice [3] (IP) was 450 mg/kg/day; with mice [3] (PO), over 750 mg/kg/day. For the same molecule, the “clinical sign of toxicity (weight)” value in the data set on mice [3] (PO, subacute, at TD0 750) is recorded as “Slight loss of weight”. Besides, the LD50 at 408 h in data set [4] (ip) is 500 mg/kg; in [4] (po), over 750 mg/kg. The “Cytotoxicity CTD50” value in the data set on G-2 cells (human, g-2 cells) was over 100 µg/mL. The entries for the “Mean Survival Time” value in data set [6] (setting [10]), in data set [6] (setting [11]) and in data set [6] (setting [12]) were 14.5 days, 13.2 days and 13.5 days, respectively. Further, the values for the Survival % in data set [6] (setting [10]), in data set [6] (setting [11]) and in data set [6] (setting [12]) were 70%, 40% and 45%, respectively. The figures for the “Survival N (surviving animals / total infected)” value in data set [6] (setting [10]), in data set [6] (setting [11]) and in [6] (setting [12]) were 14/20, 8/20 and 9/20, respectively. Besides, the figures for the “Mean Survival Time Increase” value in [6] (setting [10]), in [6] (setting [11]) and in data set [6] (setting [12]) were “+2.1 Days”, “+2.1 Days” and “+2.2 Days”, respectively. The “antiviral effect against influenza virus infection” value in data set [6] is “significant antiviral effect”.

For the molecule `N[C@H]1C[C@H]2C[C@@H]1c1ccccc12` (relative stereo) [isomer with the amino substituent taking up the exo configuration], in data set [1], the antiviral activity result is recorded as “showed no antiviral activity”.
